Experiments:
thrombin generation = test: Thrombin generation assay in platelet poor or platelet rich plasma (RFU); assay type: biochemical, human; settings: betrixaban 250 nM; all rfVIIa concentrations tested
aPTT of human plasma = test: aPTT clotting assay with MLA Electra 800 automatic coagulation timer; assay type: biochemical
[1] = in vivo; cited from earlier work

SMILES	inhibition of fXa by betrixaban in the presence of rfVIIa (thrombin generation)	aPTT (aPTT of human plasma; 300 nM Betrixaban alone) [s]	aPTT (aPTT of human plasma; 400 nM Betrixaban alone) [s]	extension of aPTT (aPTT of human plasma; 400 nM betrixaban)	reported therapeutic concentration [1]
COc1ccc(NC(=O)c2ccc(C(=N)N(C)C)cc2)c(C(=O)Nc2ccc(Cl)cn2)c1 [betrixaban, [2-({4-[(dimethylamino)iminomethyl]phenyl}carbonylamino)-5-methoxyphenyl]-N-(5-chloro(2-pyridyl))carboxamide]	about 75%	61.8	66.3	more than two folds	–
O=C(NC[C@H]1CN(c2ccc(N3CCOCC3=O)cc2)C(=O)O1)c1ccc(Cl)s1 [rivaroxaban]	–	–	–	–	approximately 600 nM

From US10954503B2, “Antidotes for factor Xa inhibitors and methods of using the same” (Alexion Pharmaceuticals, Inc., priority 2007, dated 2021)
